Results reported in a melting point compilation (Tetko et al.; mined from patent text by program, amines drawn as free bases though some values may be those of a salt).

| melting point [°C] | SMILES |
| --- | --- |
| 127 to 128 | COc1ccc(CNc2ccc(F)c(Cl)c2)cc1OC |
| 201 | NC(=O)c1ccc(-c2nc(O)c3c(n2)CCC3)cc1 |
| 150 to 155 | CCOC(=O)P(=O)(O)C(=O)OCC |
| 77 to 79 | CC(C)(C)C(=O)C(Cc1cccnc1)Oc1ccc(Cl)cc1 (stereo not drawn) |
| 198 to 199 | O=Cc1c[nH]c(-c2cccs2)c1 |
| > 300 | O=C(O)c1cccc(-c2cnn3c(O)ncnc23)c1 |
| 176 to 178 | CC(C)C(=O)NC(c1ccc(Br)cc1)C(F)(F)F (stereo not drawn) |
| 131 | CCOC(=O)C1=C(C)NC(N=CN(C)C)=C(C(=O)OCC)C1c1ccccc1 (stereo not drawn) |
| 159 to 160 | CC1(C)COC(CCc2ccc(NC=NO)cc2)OC1 |
| 86 to 87 | CN(Cc1cc2c3c(c1)c(=O)c(C(=O)NCc1ccc(Cl)cc1)cn3CC(=O)N2C)C[C@@H](O)c1cc2ccccc2o1 |
| 88 to 90 | O=C(CCc1ccc(Cl)cc1)N1CCC(CCO)CC1 |
| 114 to 115 | CCCc1c(O)ccc2ccc(C(=O)OCC)cc12 |
| 116 to 118 | CN=C1N(C)C(=O)CN1c1ccccc1 |
| 96 to 98 | O=CN1CCN(C(=O)CCBr)CC1 |
| 234 to 235 | CCSc1nc2ccccc2c(=O)n1NC(=O)Nc1ccc(Cl)cc1 |
| 122 to 123 | CC(C)c1nc(C(C)C)c(/C=C/C=O)c(-c2ccc(F)cc2)c1C=CC=O |
| 211 to 212 | O=C(Nc1cccc2c1C(=O)c1c-2n[nH]c1-c1ccc(C(=O)N2CCN(CC3CC3)CC2)s1)NN1CCOCC1 |
| 163 to 165 | CCOC(=O)COc1ccc(C(=O)CN2CCN(c3ccncc3)CC2=O)cc1 |
| 101 to 102 | CCN(c1nc(C)cc(-c2ccccc2C(F)(F)F)n1)c1ccc(C(C)C)cc1Br |
| 205 to 206 | NN1C(=O)C(C(=O)C(Cc2ccc3ccccc3c2)NC(=O)OCc2ccccc2)C1Oc1ccccc1 (stereo not drawn) |
| 233 | CC(C)(CO)NS(=O)(=O)c1cc(NC(=O)c2cnn3c(C(F)F)cc(-c4ccc(C(F)(F)F)cc4)nc23)c(Cl)s1 |
| 203 to 207 | CNC(=S)C1c2cc([N+](=O)[O-])ccc2OC(C)(C)C1O (stereo not drawn) |
| 156 to 158 | COc1ccc(S(=O)(=O)N2c3ccccc3-c3ccccc3C2C(C)(C)C)cc1 (stereo not drawn) |
| 99 to 107 | c1ccc(C2OC3(CCNCC3)c3ccccc32)cc1 (stereo not drawn) |

| melting point [°C] | SMILES |
| --- | --- |
| 228 to 230 | CC1(C)C=C(c2ccncc2O)c2ccccc2O1 |
| 124 to 125 | COC(=O)ON(C(N)=O)C(C)c1cc2ccccc2s1 (stereo not drawn) |
| 68 to 69.5 | COc1ccc(Cl)c2c1CCC(CCl)=C2 |
| 110 to 112 | CCCCc1nc(Cl)c(C(=O)OC)n1Cc1ccc2oc(-c3ccccc3-c3nnn[nH]3)c(Br)c2c1 |
| 236 to 239 | FC(F)(F)c1ccc2c(c1)Sc1ccccc1NC2=S |
| 88 to 90 | CSc1nncc(-c2ccco2)n1 |
| 99 to 101 | CCOc1c(C)c(C)c(O)c(CNCCOc2cc(C)ccc2C(C)C)c1C |
| 144 to 145 | CN1C(=O)CCC1(O)c1ccc(Cl)c(S(=O)(=O)NCc2ccccc2Cl)c1 (stereo not drawn) |
| 117 to 120 | CN(C)S(=O)(=O)c1cccc(NN)n1 |
| 176 to 183 | COC(=O)c1ccc(-c2ccc3c(c2)C=C(C(=O)Nc2ccc(CN(C)C4CCOCC4)cc2)CCC3)cc1 |
| 131 to 132 | CCC(Cc1cccc(NC(C)=O)c1)C(=O)O (stereo not drawn) |
| 123 to 127 | O=C1C(Br)=CC(Br)(Br)C=C1Br |
| 147 to 150 | CCOC(=O)c1cnc2cc(OC)c(OC)cc2c1Cl |
| 86 to 88.5 | COC(=O)c1cc(Cl)ccc1-n1cnnc1C |
| 129 | COc1c(C)cc(-c2cc(-c3ccncc3)c(N3CCOCC3)s2)nc1C |
| 135 to 137 | CCCc1nc2c(N)nc3ccccc3c2n1CCCCCCCCCCCC(=O)NC |
| 189 to 191 | CN(c1cccc2cc(C3=NCC4(CCOCC4)S3)[nH]c12)S(=O)(=O)c1cccs1 |
| 143 to 146 | CC(=O)Oc1ccc2c(c1)C1C(OC(=O)C(C)(C)C)CC3(C)C(OC(=O)C(C)(C)C)CCC3C1CC2 (stereo not drawn) |
| 183 to 185 | N#Cc1ccc(C2=NOC3(CCN(C(=O)CCCC(=O)O)CC3)C2)cc1 |
| 112 to 114 | CCCCCCCCCCCCNC(=O)Oc1ccc2oc3ccccc3c2c1 |
| 105 to 107 | O=c1ccn(-c2cccc3c2OC(F)(F)O3)nc1-c1ccnn1-c1ccccc1 |
| 142 to 145 | COC(=O)N1CC=C(c2ccc(N3C[C@H](CNC(C)=O)OC3=O)cc2)CC1 |
| 100 to 101 | CCCC(CO)(CO)CO |
| 195 to 197 | CCCOc1ccccc1-c1nc2nnc(SC)nc2c(=O)[nH]1 |

| melting point [°C] | SMILES |
| --- | --- |
| 128 to 129 | COC(=O)Oc1c(OC)cc(OC)c2ccccc12 |
| 105 | COC(=O)C=CC=CCS(=O)(=O)c1ccccc1 |
| 73 to 76 | COC(=O)Cc1cc(Br)c(Sc2ccc(OC)c(C(C)C)c2)c(Br)c1 |
| 270 to 272 | CCOC(=O)c1cnc2nc(C(=O)O)c(OCC)cc2c1O |
| 117 to 121 | COC(=O)C(=C(/C)c1cc(OC)cc(OC)c1)/C(=C\c1ccccc1)C(=O)NN1CCN(C)CC1 |
| 193 to 195 | CNc1ccc(C(=O)Nc2cccc(-c3nc(NC)nc4cc(OC)c(OC)cc34)c2)cn1 |
| 160 | O=C1Nc2ccc(I)cc2C1=NNC(=O)C1CCN(C(=O)c2ccccc2)CC1 |
| 138 to 142 | CCCc1c(O)ccc2oc(Cc3ccc(O)cc3)c(C)c12 |
| 106 to 108 | Cc1cc(Nc2ncnc3ccn(CCNC(=O)CS(C)(=O)=O)c23)ccc1Oc1cccc(OC(F)(F)F)c1 |
| 237 to 239 | CNC(=O)c1cc2c(nc(C)n2C)c2c1CCC(OC)(c1ccccc1)O2 (stereo not drawn) |
| 120 | CC(=O)N1CCC(C(=O)c2ccc(Br)cc2)CC1 |
| 133 to 135 | C/C=C/c1c(N)nc(-c2ccc(Cl)c(OC)c2F)nc1C(=O)OC |
| 243 to 245 | O=C(O)Cc1cccc2c1N=C(c1ccccc1F)CC2=O |
| > 300 | Cc1[nH]c(=O)ccc1C#N |
| 225 to 226 | CC(C)(C)c1ccc(S(=O)(=O)Nc2cc(Cl)ncn2)cc1 |
| 185 to 186 | NC(=O)CNC(=O)c1ccnc(-c2cccc3cc(COc4cccc(C(F)(F)F)c4)sc23)c1 |
| 73 to 78 | CCCS(=O)(=O)c1c(Cl)cnc(Cl)c1Cl |
| 168 to 169 | Cc1cc(OCc2ccc(-c3ccc(C(F)(F)F)cc3)nc2C)ccc1SCC(=O)O |
| 180 to 185 | CC1CC2C3CCC4=CC(=O)C=CC4(C)C3=CCC2(C)C1C(=O)CN1CCN(c2cc(NC3CCCC3)nc(NC3CCCC3)n2)CC1 (stereo not drawn) |
| 139 to 141 | CCNC(=O)N(C)C1c2ccccc2Oc2ccccc21 |
| 251 to 252 | COC(=O)c1csc(NC(=O)c2cc(OC)c(OC)cc2OC)n1 |
| 98 to 100 | CC(Oc1ccc(-c2ccc(Cl)cc2Cl)cc1)C(O)CCc1cccnc1 (stereo not drawn) |

| SMILES | melting point [°C] |
| --- | --- |
| Cn1cc(C(=O)CCN2CCCCC2)cc1C(=O)c1cccc2ccccc12 | 141 to 143 |
| O=C(O)C(=O)c1cn(Cc2ccccc2)c2ccc(-c3ccc(OC(F)(F)F)cc3)cc12 | 169 to 171 |
| C[C@@H]1N(C)C(C)(C)CO[C@@]1(O)c1cccc(Cl)c1 | 128 to 129 |
